Results taken from patent US20210262029A1, “TREATMENT OF KCNQ2 AND KCNQ3 GAIN OF FUNCTION-ASSOCIATED DISORDERS” (The Trustees of Columbia University in the City of New York, priority 2018, published 2021).

Experiments:
[1] = molecular target: KCNQ3 R1Q (Homo sapiens, UniProt O43525, R227Q); conditions: 30 mM TEA; homomeric KCNQ3 R1Q (R227Q); CHO cells
From the text: (§1) Variants were introduced in KCNQ3 human cDNA cloned into pcDNA3.1 by QuikChange site-directed mutagenesis (Agilent Technologies, Milan, Italy), as previously described.^12 Channel subunits were expressed in Chinese hamster ovary (CHO) cells by transient transfection using Lipofectamine 2000 (Invitrogen, Carlsbad, Calif.) according to the manufacturer's protocol.^17 A plasmid encoding enhanced green fluorescent protein (Clontech Laboratories, Mountain View, Calif.) was used as a transfection marker; total cDNA in the transfection mixture was kept constant at 4 μg.
(§2) Currents were recorded under whole-cell patch-clamp at room temperature (20-22° C.) 1 to 2 days after transfection as reported.^12 Current densities (expressed in pA/pF) were calculated as peak K^+ currents at 0 mV divided by cell capacitance. To generate conductance-voltage curves, the cells were held at −80 mV, then depolarized for 1.5 seconds from ˜120 to +20 mV in 10 mV increments, followed by an isopotential pulse at 0 mV of 300-millisecond duration. The current values recorded at the beginning of the 0 mV pulse were measured, normalized, and expressed as a function of the preceding voltages. The data were then fit to a Boltzmann distribution of the following form: y=max/[1+exp(V½−V)/k], where V is the test potential, V½ the half-activation potential, and k the slope factor.

[2] = molecular target: KCNQ3 R2S (Homo sapiens, UniProt O43525, R230S); conditions: 30 mM TEA; homomeric KCNQ3 R2S (R230S); CHO cells
KCNQ3 R2S, sequence (O43525 whole entry R230S): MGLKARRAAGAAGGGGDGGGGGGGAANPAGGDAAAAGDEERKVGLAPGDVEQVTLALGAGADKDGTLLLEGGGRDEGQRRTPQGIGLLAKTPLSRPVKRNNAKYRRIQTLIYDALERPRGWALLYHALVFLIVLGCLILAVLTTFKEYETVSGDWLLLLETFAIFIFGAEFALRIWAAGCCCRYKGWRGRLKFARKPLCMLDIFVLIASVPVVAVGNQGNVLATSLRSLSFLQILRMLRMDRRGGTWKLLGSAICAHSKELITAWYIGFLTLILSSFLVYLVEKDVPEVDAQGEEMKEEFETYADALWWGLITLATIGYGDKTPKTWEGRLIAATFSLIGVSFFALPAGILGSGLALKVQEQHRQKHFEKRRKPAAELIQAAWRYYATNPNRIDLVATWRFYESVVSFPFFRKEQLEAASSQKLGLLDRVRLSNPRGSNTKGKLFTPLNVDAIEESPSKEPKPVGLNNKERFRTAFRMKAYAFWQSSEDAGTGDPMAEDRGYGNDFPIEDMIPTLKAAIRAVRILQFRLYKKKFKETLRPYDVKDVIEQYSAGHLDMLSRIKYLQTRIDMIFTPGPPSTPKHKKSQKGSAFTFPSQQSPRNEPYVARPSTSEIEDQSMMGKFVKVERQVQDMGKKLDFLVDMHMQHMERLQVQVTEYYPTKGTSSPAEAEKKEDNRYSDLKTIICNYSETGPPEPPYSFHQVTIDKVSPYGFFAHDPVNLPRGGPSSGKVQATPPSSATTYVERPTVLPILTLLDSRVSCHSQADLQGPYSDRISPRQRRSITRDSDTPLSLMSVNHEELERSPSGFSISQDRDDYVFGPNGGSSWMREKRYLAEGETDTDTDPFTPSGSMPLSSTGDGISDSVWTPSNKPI
From the text: as §1, §2

[3] = molecular target: KCNQ3 R2H (Homo sapiens, UniProt O43525, R230H); conditions: 30 mM TEA; homomeric KCNQ3 R2H (R230H); CHO cells
KCNQ3 R2H, sequence (O43525 whole entry R230H): as the sequence (O43525 whole entry R230S) above, with S230H counted along it
From the text: as §1, §2

[4] = molecular target: KCNQ3 (Homo sapiens, UniProt O43525); conditions: homomeric KCNQ3 wild type, CHO cells
KCNQ3, sequence (O43525 whole entry): as the sequence (O43525 whole entry R230S) above, with S230R counted along it
From the text: as §1, §2

[5] = molecular target: KCNQ3 R2C (Homo sapiens, UniProt O43525, R230C); conditions: 30 mM TEA; homomeric KCNQ3 R2C (R230C); CHO cells
KCNQ3 R2C, sequence (O43525 whole entry R230C): as the sequence (O43525 whole entry R230S) above, with S230C counted along it
From the text: as §1, §2

[6] = test system: KCNQ2 + KCNQ3 + KCNQ3 R2H; conditions: KCNQ2 + KCNQ3 + KCNQ3 R2H 1:0.5:0.5, CHO cells
From the text: (§3) To mimic the genetic condition of patients, who carry a single mutant allele, and considering that IKM in adult neurons is mainly formed by tetrameric co-assembly of KCNQ2 and KCNQ3 subunits, we transfected CHO cells with KCNQ2 and KCNQ3 cDNAs in a 1:1 ratio (to mimic the genetic balance of normal individuals), and KCNQ2+KCNQ3+mutant KCNQ3 1:0.5:0.5 ratio (to mimic the genetic balance of affected individuals).
as §1, §2

[7] = test system: KCNQ2 + KCNQ3 + KCNQ3 R2S; conditions: KCNQ2 + KCNQ3 + KCNQ3 R2S 1:0.5:0.5, CHO cells
From the text: as §3, §1, §2

[8] = molecular target: KCNQ2 + KCNQ3 (Homo sapiens, UniProt O43525+O43526); conditions: KCNQ2 + KCNQ3 1:1, CHO cells
KCNQ2 + KCNQ3, sequence (O43526 1-844 isoform O43526-3): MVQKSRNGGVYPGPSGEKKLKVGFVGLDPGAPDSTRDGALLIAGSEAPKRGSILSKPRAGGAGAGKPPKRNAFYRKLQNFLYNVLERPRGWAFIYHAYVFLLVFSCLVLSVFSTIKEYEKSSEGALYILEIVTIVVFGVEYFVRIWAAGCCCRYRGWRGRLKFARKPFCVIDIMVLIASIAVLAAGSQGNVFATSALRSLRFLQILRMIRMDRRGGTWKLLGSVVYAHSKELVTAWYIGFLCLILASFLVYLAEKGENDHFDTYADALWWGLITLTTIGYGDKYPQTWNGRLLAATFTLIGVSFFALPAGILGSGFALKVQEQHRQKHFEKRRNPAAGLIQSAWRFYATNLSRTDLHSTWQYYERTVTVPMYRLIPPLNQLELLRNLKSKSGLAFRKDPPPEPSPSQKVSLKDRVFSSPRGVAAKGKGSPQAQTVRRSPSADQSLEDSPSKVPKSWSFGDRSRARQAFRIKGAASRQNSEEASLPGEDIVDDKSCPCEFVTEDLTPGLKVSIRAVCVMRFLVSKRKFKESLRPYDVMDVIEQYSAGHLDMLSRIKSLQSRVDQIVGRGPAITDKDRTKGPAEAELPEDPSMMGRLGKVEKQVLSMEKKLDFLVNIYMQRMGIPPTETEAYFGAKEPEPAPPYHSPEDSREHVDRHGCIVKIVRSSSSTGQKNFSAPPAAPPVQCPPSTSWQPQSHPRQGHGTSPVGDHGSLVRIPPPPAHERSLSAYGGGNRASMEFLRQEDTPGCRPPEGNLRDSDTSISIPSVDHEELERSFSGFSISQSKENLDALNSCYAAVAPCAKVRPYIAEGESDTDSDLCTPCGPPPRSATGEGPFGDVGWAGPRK
KCNQ2 + KCNQ3, sequence (O43525 whole entry): as the sequence (O43525 whole entry R230S) above, with S230R counted along it
From the text: as §3, §1, §2

[9] = test system: KCNQ2 + KCNQ3 + KCNQ3 R2C; conditions: KCNQ2 + KCNQ3 + KCNQ3 R2C 1:0.5:0.5, CHO cells
From the text: as §3, §1, §2

[10] = test system: KCNQ2 + KCNQ3 + KCNQ3 R1Q; conditions: KCNQ2 + KCNQ3 + KCNQ3 R1Q 1:0.5:0.5, CHO cells
From the text: as §3, §1, §2

KCNQ3 R1Q, sequence (O43525 whole entry R227Q): as the sequence (O43525 whole entry R230S) above, with R227Q, S230R counted along it

SMILES: CC[N+](CC)(CC)CC [TEA, tetraethylammonium]
- Blockade by TEA, % 30 mM [1]: 61.1 ± 6.8%
- Blockade by TEA, % 30 mM [2]: 66.1 ± 6.1%
- Blockade by TEA, % 30 mM [3]: 70.9 ± 7.3%
- Blockade by TEA, % 0.3 mM ([4]; 0.3 mM TEA): 6.4 ± 1.8%
- Blockade by TEA, % 3 mM ([4]; 3 mM TEA): 13.0 ± 3.4%
- Blockade by TEA, % 30 mM ([4]; 30 mM TEA): 61.7 ± 5.7%
- Blockade by TEA, % 30 mM [5]: 58.6 ± 13%
- Blockade by TEA, % 0.3 mM ([6]; 0.3 mM TEA): 20.8 ± 3.1%
- Blockade by TEA, % 3 mM ([6]; 3 mM TEA): 47.4 ± 2.5%
- Blockade by TEA, % 30 mM ([6]; 30 mM TEA): 78.8 ± 3.2%
- Blockade by TEA, % 0.3 mM ([7]; 0.3 mM TEA): 12.9 ± 2.3%
- Blockade by TEA, % 3 mM ([7]; 3 mM TEA): 43.6 ± 8.2%
- Blockade by TEA, % 30 mM ([7]; 30 mM TEA): 80.1 ± 6.5%
- Blockade by TEA, % 0.3 mM ([8]; 0.3 mM TEA): 15.6 ± 3.1%
- Blockade by TEA, % 3 mM ([8]; 3 mM TEA): 50.5 ± 3.1%
- Blockade by TEA, % 30 mM ([8]; 30 mM TEA): 78.8 ± 5.6%
- Blockade by TEA, % 0.3 mM ([9]; 0.3 mM TEA): 14.0 ± 6.2%
- Blockade by TEA, % 3 mM ([9]; 3 mM TEA): 47.1 ± 9.9%
- Blockade by TEA, % 30 mM ([9]; 30 mM TEA): 77.0 ± 7.3%
- Blockade by TEA, % 0.3 mM ([10]; 0.3 mM TEA): 19.3 ± 2.0%
- Blockade by TEA, % 3 mM ([10]; 3 mM TEA): 44.1 ± 4.3%
- Blockade by TEA, % 30 mM ([10]; 30 mM TEA): 85.3 ± 2.1%
